According to the NIST ThermoML archive (doi:10.1016/j.tca.2008.10.017):

Assay: molar heat capacity at constant pressure
Settings: 101.33 kPa, Crystal 2, Small (less than 1 g) adiabatic calorimetry

CCCC[N+](CCCC)(CCCC)CCCC.[I-] [tetrabutylammonium iodide]
Settings | molar heat capacity at constant pressure [J/K/mol]
5 K | 0.875
5.6 K | 0.546
5.7 K | 0.62
5.82 K | 0.735
5.88 K | 0.786
6.15 K | 1.05
6.33 K | 1.24
6.6 K | 1.54
6.69 K | 1.67
6.89 K | 1.87
6.98 K | 2.05
7.07 K | 2.12
7.26 K | 2.39
7.35 K | 2.49
7.45 K | 2.68
7.54 K | 2.82
7.74 K | 3.02
8.03 K | 3.55
8.14 K | 3.66
8.24 K | 3.76
8.45 K | 4.16
8.55 K | 4.34
8.66 K | 4.58
8.77 K | 4.69
8.87 K | 4.87
9.09 K | 5.28
9.2 K | 5.43
9.42 K | 5.78
9.53 K | 5.96
9.76 K | 6.52
9.87 K | 6.76
9.98 K | 6.85
10 K | 6.91
10.26 K | 7.37
10.71 K | 8.33
11.16 K | 9.2
11.61 K | 10.3
12.08 K | 11.3
12.55 K | 12.5
13.04 K | 13.6
13.53 K | 14.9
14.03 K | 16
14.54 K | 17.2
15.05 K | 18.56
15.57 K | 19.98
16.09 K | 21.47
16.61 K | 22.94
17.14 K | 24.46
17.67 K | 25.9
18.2 K | 27.48
18.76 K | 29
19.31 K | 30.77
19.85 K | 32.46
20 K | 32.91
20.98 K | 35.93
22.55 K | 40.49
24.16 K | 45.21
25.78 K | 49.77
27.42 K | 54.6
29.07 K | 59.44
30 K | 62.21
30.73 K | 64.36
32.39 K | 69.26
34.07 K | 74.01
35.76 K | 78.8
37.45 K | 83.46
39.15 K | 87.9
40 K | 90.12
40.85 K | 92.36
42.56 K | 96.45
44.26 K | 100.6
45.97 K | 104.7
47.72 K | 108.8
49.44 K | 112.6
50 K | 113.7
51.16 K | 116.5
52.88 K | 120.1
54.61 K | 123.5
56.34 K | 127.3
58.07 K | 131
59.8 K | 134.9
60 K | 135.4
61.53 K | 138.8
63.27 K | 142.4
65.01 K | 146.4
66.75 K | 150
68.49 K | 153.6
70 K | 156.1
72.19 K | 159.7
74.35 K | 163.7
76.49 K | 167.2
78.63 K | 170.6
80 K | 172.8
80.76 K | 173.7
82.88 K | 177.6
84.02 K | 179.7
85.33 K | 181.8
87.83 K | 185.8
89.91 K | 189.2
90 K | 189.7
91.99 K | 192.3
94.06 K | 195.1
96.13 K | 198.4
98.18 K | 201.3
100 K | 204.1
100.24 K | 204.2
102.48 K | 208.5
104.92 K | 211.3
107.37 K | 214.8
109.82 K | 217.8
110 K | 217.9
112.27 K | 220.9
114.75 K | 224.1
117.24 K | 227.3
119.7 K | 230.1
120 K | 230.8
122.11 K | 233.2
124.58 K | 236.3
127.05 K | 239.3
129.51 K | 242.1
130 K | 242.9
131.98 K | 245.1
134.46 K | 248.1
136.93 K | 251
139.4 K | 253.8
140 K | 254.4
141.88 K | 256.5
144.36 K | 259.3
146.84 K | 262.3
149.32 K | 264.6
150 K | 265.4
151.8 K | 267.5
154.28 K | 270.5
156.76 K | 273
159.25 K | 275.4
160 K | 276.3
161.68 K | 277.9
164.17 K | 280.8
166.66 K | 283.6
169.14 K | 286.4
170 K | 287.1
171.63 K | 288.8
174.12 K | 291.3
179.09 K | 296.7
180 K | 297.8
181.58 K | 299.2
184.06 K | 302
186.55 K | 304.6
189.03 K | 307.5
190 K | 308.6
191.52 K | 310
194 K | 312.6
196.48 K | 315.8
198.96 K | 318.2
200 K | 319.4
201.37 K | 321.1
203.83 K | 324
206.3 K | 326.7
208.78 K | 329.1
210 K | 330.4
211.25 K | 332.3
213.73 K | 334
216.22 K | 337
218.7 K | 339.9
220 K | 341.7
221.19 K | 342.7
223.68 K | 345.9
226.17 K | 348.6
228.67 K | 351.6
230 K | 353.2
231.16 K | 354.6
233.66 K | 357.7
235.16 K | 359.3
237.7 K | 362.3
238.66 K | 363.9
240 K | 365.1
241.12 K | 366.7
243.63 K | 369.8
246.14 K | 372.6
248.65 K | 375.9
250 K | 377.4
251.17 K | 379.2
253.68 K | 382.1
256.2 K | 385.3
258.72 K | 388.5
260 K | 390.2
261.24 K | 392
263.76 K | 395.2
266.29 K | 398.2
268.81 K | 401.5
270 K | 403.3
271.34 K | 405
273.15 K | 407.6
273.87 K | 408.1
276.4 K | 411.5
278.93 K | 415
280 K | 416.9
281.43 K | 418.6
283.96 K | 421.7
286.49 K | 425.5
289.02 K | 429.5
290 K | 430.8
291.54 K | 433.4
294.07 K | 436.3
296.58 K | 439.9
298.15 K | 442.5
299.1 K | 443.6
300 K | 445.2
301.98 K | 449.2
305.32 K | 453.3
308.64 K | 459.7
310 K | 460.1
311.93 K | 464
315.18 K | 468.4
318.42 K | 473.1
320 K | 475.7
321.63 K | 477.8
324.82 K | 483
327.99 K | 488.3
330 K | 492.4
331.13 K | 493.9
334.25 K | 499.5
337.34 K | 505.8
340 K | 511
340.41 K | 511.9
343.45 K | 518.1
346.47 K | 524.6
349.45 K | 530.9
350 K | 532.3
352.15 K | 537.6
